From patent publication US20240124504A1, “AROMATIC HETEROCYCLIC COMPOUND, AND PHARMACEUTICAL COMPOSITION AND APPLICATION THEREOF” (GT APEIRON THERAPEUTICS LIMITED, priority 2020, published 2024)

What was measured:
CDK2/cyclinE1 complex = CDK2/cyclinE1 complex (Homo sapiens, UniProt P24941); assay: In-vitro enzymatic inhibitory activity testing, CDK2 inhibition assay (Caliper EZ Reader II); format: biochemical; conditions: CDK2/cyclinE1 0.5 nM, 180 min at 27° C.
Method in brief: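 CDK2/cyclinE1 (0.5 nM) phosphorylated 5-FAM-CDK7tide (2 μM) in MES buffer pH 6.5 with MgCl2, Tween 20 and BSA. Substrate and product were separated electrophoretically on a Caliper EZ Reader II. IC50 values came from nonlinear dose-response fits.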

ovarian cancer A2780 = assay: Cell biological activity detection (CyQuant, 72 hours), A2780; format: cell-based, human; conditions: A2780 cells, incubation for 72 hours
Experimental: (§1) A2780 and HCC70 cells were subjected to trypsin digestion treatment, and cell suspensions were respectively transferred to 15 mL centrifuge tubes and centrifuged for 5 min at […]) rpm; supernatant was discarded, and resuspension was carried out in a fresh medium (RPMI 1640+10% FBS), after counting, cells were seeded into a 384-well plate at 2000/well (50 μL of 1640+10% FBS medium was added to the 2nd column and the 23rd column of the 384-well plate, and 50 μL of DPBS was added to the surrounding wells). Incubation was carried out overnight in an incubator (37° C., 5% CO2).
(§2) The compound was added to the well plates the next day. The compound had the highest concentration of 10 μM and was diluted at 1:4, and there were a total of 9 concentrations; and a positive compound Paclitaxel had the highest concentration of 1 μM and was diluted at 1:3, and there were a total of 9 concentrations. The DMSO content in each well was unified to 0.2%. The cell plates were centrifuged for 30 seconds at 800 rpm and placed in an incubator (37° C., 5% CO2) for incubation for 72 hours. On the fourth day, a Cyquant reagent (3×) was formulated according to kit instructions, and formulation was carried out for each 384-well plate according to the following proportions: DPBS 11.568 mL, CyQuant®? Direct nucleic acid stain 72 μL, and CyQuant® Direct background suppressor 360 μL. After uniform mixing, the reagent was placed at room temperature for further use. The cell plates were taken out and equilibrated for 30 min at room temperature, and 25 μL of the Cyquant reagent (3×) per well was dispensed into the cells of the 384-well plates by Multi-drop, and incubation was carried out for more than 60 minutes at 37° C. Acumen plate reading (Acumen setting: an excitation wavelength of 488 nm). IC50 results were analyzed by XLFIT5 from IDBS Company.

[1] = target: T1, CDK12 (aa686-1082)/cyclinK complex (Homo sapiens, UniProt Q9NYV4); assay: In-vitro enzymatic inhibitory activity testing, CDK12 inhibition assay (Caliper EZ Reader II); format: biochemical; conditions: CDK12/cyclinK 50 nM, 180 min at 27° C.; read-out: CDK12 IC50
T1 construct: A CDK12 (aa686-1082)/cyclinK complex (50 nM)
T1 sequence (Q9NYV4 686-1082, species assumed): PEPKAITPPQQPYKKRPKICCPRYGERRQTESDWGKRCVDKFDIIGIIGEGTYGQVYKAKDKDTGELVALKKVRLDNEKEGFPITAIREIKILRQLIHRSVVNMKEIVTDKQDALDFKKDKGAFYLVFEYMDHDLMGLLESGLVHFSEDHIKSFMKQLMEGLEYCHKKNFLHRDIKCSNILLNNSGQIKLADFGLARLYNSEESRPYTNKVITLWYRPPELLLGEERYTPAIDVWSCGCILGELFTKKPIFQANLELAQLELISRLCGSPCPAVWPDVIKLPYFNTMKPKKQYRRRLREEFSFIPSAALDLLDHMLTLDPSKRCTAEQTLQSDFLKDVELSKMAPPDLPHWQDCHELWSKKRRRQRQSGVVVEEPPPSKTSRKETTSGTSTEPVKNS
T1 sequence (O75909 whole entry partner, species assumed, the tested form may be a part): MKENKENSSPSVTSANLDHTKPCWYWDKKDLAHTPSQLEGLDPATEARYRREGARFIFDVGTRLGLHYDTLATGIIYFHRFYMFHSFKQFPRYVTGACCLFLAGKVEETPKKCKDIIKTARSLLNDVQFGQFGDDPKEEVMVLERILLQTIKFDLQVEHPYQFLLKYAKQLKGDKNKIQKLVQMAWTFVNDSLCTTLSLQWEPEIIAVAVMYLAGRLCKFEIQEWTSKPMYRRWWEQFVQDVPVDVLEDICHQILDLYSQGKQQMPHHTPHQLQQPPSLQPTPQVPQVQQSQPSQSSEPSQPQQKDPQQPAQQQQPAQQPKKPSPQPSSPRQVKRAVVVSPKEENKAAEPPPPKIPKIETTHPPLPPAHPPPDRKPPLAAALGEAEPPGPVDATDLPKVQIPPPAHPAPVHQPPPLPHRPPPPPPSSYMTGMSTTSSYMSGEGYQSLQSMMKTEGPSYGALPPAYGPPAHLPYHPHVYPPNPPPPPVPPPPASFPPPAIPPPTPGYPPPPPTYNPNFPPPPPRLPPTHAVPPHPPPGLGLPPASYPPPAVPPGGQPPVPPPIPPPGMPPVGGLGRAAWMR
Method in brief: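 CDK12 (aa686-1082)/cyclinK complex at 50 nM was pre-incubated with compound for 10 min, then reacted 180 min at 27° C with ATP and 2 μM 5-FAM-CDK9tide in pH 6.5 MES buffer with 10 mM MgCl2. Reactions were EDTA-quenched and product resolved electrophoretically; IC50 from nonlinear curve fit.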

CDK9/cyclinT1 complex = CDK9/cyclinT1 complex (Homo sapiens, UniProt P50750); assay: In-vitro enzymatic inhibitory activity testing, CDK9 inhibition assay (Caliper EZ Reader II); format: biochemical; conditions: CDK9/cyclinT1 8 nM, 180 min at 27° C.
CDK9/cyclinT1 complex, sequence (P50750 whole entry, species assumed): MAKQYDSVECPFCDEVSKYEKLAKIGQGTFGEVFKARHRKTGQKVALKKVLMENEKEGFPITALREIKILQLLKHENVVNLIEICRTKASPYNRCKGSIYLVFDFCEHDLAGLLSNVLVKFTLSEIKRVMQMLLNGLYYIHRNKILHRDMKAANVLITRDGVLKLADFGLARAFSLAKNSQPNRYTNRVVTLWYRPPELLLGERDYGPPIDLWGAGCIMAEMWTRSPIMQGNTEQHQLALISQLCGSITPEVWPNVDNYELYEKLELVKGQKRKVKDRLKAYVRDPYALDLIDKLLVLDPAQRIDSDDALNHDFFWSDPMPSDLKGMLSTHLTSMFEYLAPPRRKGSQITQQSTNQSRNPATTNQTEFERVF
CDK9/cyclinT1 complex, sequence (O60563 whole entry partner, species assumed): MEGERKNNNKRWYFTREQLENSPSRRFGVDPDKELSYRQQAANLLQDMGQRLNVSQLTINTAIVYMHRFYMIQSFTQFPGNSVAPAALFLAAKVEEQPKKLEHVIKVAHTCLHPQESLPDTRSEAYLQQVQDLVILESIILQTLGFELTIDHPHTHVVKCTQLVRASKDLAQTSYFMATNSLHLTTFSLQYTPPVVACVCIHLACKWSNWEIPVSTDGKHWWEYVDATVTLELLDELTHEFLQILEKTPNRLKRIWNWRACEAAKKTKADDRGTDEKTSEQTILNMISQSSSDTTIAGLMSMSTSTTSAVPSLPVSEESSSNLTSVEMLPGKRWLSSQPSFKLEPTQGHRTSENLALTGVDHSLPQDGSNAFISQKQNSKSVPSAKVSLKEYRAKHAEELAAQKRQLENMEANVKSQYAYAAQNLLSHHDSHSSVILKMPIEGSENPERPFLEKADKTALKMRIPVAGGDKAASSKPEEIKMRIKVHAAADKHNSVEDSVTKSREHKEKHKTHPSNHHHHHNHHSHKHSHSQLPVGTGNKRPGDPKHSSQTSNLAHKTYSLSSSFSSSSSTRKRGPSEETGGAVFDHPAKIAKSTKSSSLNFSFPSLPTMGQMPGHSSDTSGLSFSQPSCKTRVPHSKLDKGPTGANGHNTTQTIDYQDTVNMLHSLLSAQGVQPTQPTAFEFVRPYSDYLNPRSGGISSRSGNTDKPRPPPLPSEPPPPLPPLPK
Method in brief: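 Phosphorylated and unphosphorylated fluorescent peptide were resolved by mobility-shift electrophoresis, with IC50 taken from a nonlinear regression of dose-response data. Reactions ran 180 min at 27 °C in MES buffer pH 6.5 with MgCl2, after 10 min enzyme–compound preincubation, using 8 nM CDK9/cyclinT1 and 5-FAM-CDK9tide.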

[2] = system: human breast cancer cells HCC70; assay: Cell biological activity detection (CyQuant, 72 hours), HCC70; format: cell-based; conditions: incubation for 72 hours
Experimental: as §1, §2

[3] = target: CDK7/cyclinH/MAT1 complex (Homo sapiens, UniProt P50613); assay: In-vitro enzymatic inhibitory activity testing, CDK7 inhibition assay (Caliper EZ Reader II); format: biochemical; conditions: CDK7/cyclinH/MAT1 6 nM, 180 min at 27° C.
CDK7/cyclinH/MAT1 complex, sequence (P50613 whole entry, species assumed): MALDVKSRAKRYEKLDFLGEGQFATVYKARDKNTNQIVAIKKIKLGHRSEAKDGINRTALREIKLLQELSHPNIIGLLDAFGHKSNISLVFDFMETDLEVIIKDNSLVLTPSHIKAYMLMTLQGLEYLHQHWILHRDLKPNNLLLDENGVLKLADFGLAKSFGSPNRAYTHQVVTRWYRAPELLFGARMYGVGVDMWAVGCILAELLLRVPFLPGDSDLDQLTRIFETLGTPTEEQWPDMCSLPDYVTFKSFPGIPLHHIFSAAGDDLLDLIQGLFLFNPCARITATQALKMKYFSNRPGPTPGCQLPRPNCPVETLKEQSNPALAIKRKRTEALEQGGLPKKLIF
CDK7/cyclinH/MAT1 complex, sequence (P51946 whole entry partner, species assumed): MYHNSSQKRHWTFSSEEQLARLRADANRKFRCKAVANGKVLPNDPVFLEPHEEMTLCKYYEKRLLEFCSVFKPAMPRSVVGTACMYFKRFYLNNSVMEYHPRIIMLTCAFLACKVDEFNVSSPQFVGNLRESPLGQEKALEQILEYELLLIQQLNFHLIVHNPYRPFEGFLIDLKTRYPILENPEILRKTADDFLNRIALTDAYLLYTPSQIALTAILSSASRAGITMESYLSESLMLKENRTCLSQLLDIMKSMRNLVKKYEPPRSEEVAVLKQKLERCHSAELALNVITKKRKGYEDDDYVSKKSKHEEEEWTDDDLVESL
CDK7/cyclinH/MAT1 complex, sequence (P51948 whole entry partner, species assumed): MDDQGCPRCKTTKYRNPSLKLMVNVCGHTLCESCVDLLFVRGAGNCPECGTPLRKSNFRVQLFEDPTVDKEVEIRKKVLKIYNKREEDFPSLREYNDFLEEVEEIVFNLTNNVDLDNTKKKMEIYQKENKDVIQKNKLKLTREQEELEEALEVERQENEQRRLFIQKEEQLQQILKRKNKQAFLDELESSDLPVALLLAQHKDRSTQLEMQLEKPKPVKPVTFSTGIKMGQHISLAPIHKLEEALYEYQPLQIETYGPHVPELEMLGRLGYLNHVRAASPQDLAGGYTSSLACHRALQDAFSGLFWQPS
Method in brief: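 Enzyme preincubated 10 min with compound, then peptide substrate plus ATP added in 80 mM MES pH 6.5, 10 mM MgCl2 buffer; 180 min at 27 °C, stopped with EDTA.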

Structure (SMILES)	IC50 (CDK2/cyclinE1 complex)	IC50 (ovarian cancer A2780; Homo sapiens, A2780, 72 h)	IC50 [1]	IC50 (CDK9/cyclinT1 complex)	IC50 [3]	IC50 (ovarian cancer A2780)	IC50 [2]	IC50 ([2]; Homo sapiens, HCC70, 72 h)
CP(C)(=O)c1cccc2c(-c3nc(NCC(O)C(F)(F)F)ncc3C(F)(F)F)c[nH]c12 (single isomer, unassigned) [Compound 147]	> 50 µM	–	> 50 µM	> 50 µM	0.02 to 0.2 µM	0.02 to 0.2 µM	0.2 to 5 µM	–
FC(F)(F)c1cnc(NC2CCCNCC2)nc1-c1c[nH]c2nc(N3CCOCC3)ccc12 (stereo not drawn) [Compound 47, N-(4-(6-morpholinyl-1H-pyrrolo[2,3-b]pyridin-3-yl)-5-(trifluoromethyl)pyrimidin-2-yl)azepan-4-amine]	5 to 50 µM	0.2 to 5 µM	5 to 50 µM	5 to 50 µM	0.02 to 0.2 µM	–	–	0.2 to 5 µM
FC(F)(F)c1cnc(NC2COC3(CCCNC3)C2)nc1-c1c[nH]c2nc(N3CCOCC3)ccc12 (stereo not drawn) [Compound 50, N-(4-(6-morpholinyl-1H-pyrrolo[2,3-b]pyridin-3-yl)-5-(trifluoromethyl)pyrimidin-2-yl)-1-oxa-7-azaspiro[4.5]decan-3-amine]	5 to 50 µM	0.2 to 5 µM	5 to 50 µM	> 50 µM	0.2 to 5 µM	–	–	0.2 to 5 µM
FC(F)(F)c1cnc(NC2COC3(CCNCC3)C2)nc1-c1c[nH]c2nc(N3CCOCC3)ccc12 (stereo not drawn) [Compound 51, N-(4-(6-morpholinyl-1H-pyrrolo[2,3-b]pyridin-3-yl)-5-(trifluoromethyl)pyrimidin-2-yl)-1-oxa-8-azaspiro[4.5]decan-3-amine]	5 to 50 µM	0.2 to 5 µM	5 to 50 µM	5 to 50 µM	0.2 to 5 µM	–	–	0.2 to 5 µM
FC(F)(F)c1cnc(NCC2CCNC2)nc1-c1c[nH]c2nc(N3CCOCC3)ccc12 (stereo not drawn) [Compound 52, 4-(6-morpholinyl-1H-pyrrolo[2,3-b]pyridin-3-yl)-N-(pyrrolidin-3-ylmethyl)-5-(trifluoromethyl)pyrimidin-2-amine]	5 to 50 µM	0.2 to 5 µM	5 to 50 µM	5 to 50 µM	0.02 to 0.2 µM	–	–	0.2 to 5 µM
C[C@@H]1C[C@H](Nc2ncc(C(F)(F)F)c(-c3c[nH]c4nc(N5CCOCC5)ccc34)n2)CCN1 [Compound 54, N-((2R,4R)-2-methylpiperidin-4-yl)-4-(6-morpholinyl-1H-pyrrolo[2,3-b]pyridin-3-yl)-5-(trifluoromethyl)pyrimidin-2-amine]	5 to 50 µM	0.2 to 5 µM	5 to 50 µM	> 50 µM	0.02 to 0.2 µM	–	–	0.2 to 5 µM
FC(F)(F)c1cnc(NC2CCC3CNCC32)nc1-c1c[nH]c2nc(N3CCOCC3)ccc12 (stereo not drawn) [Compound 55, N-(4-(6-morpholinyl-1H-pyrrolo[2,3-b]pyridin-3-yl)-5-(trifluoromethyl)pyrimidin-2-yl)octahydrocyclopenta[c]pyrrol-4-amine]	5 to 50 µM	0.02 to 0.2 µM	> 50 µM	> 50 µM	0.02 to 0.2 µM	–	–	0.2 to 5 µM
FC(F)(F)c1cnc(NC2COC23CNC3)nc1-c1c[nH]c2nc(N3CCOCC3)ccc12 (stereo not drawn) [Compound 58, N-(4-(6-morpholinyl-1H-pyrrolo[2,3-b]pyridin-3-yl)-5-(trifluoromethyl)pyrimidin-2-yl)-1-oxa-6-azaspiro[3.3]heptan-3-amine]	5 to 50 µM	0.2 to 5 µM	> 50 µM	> 50 µM	0.02 to 0.2 µM	–	–	0.02 to 0.2 µM
FC(F)(F)c1cnc(N[C@@H]2CCC23CNC3)nc1-c1c[nH]c2nc(N3CCOCC3)ccc12 [Compound 59, (R)—N-(4-(6-morpholinyl-1H-pyrrolo[2,3-b]pyridin-3-yl)-5-(trifluoromethyl)pyrimidin-2-yl)-2-azaspiro[3.3]heptan-5-amine]	5 to 50 µM	0.02 to 0.2 µM	> 50 µM	5 to 50 µM	< 0.02 µM	–	–	0.02 to 0.2 µM
CC1(C)COCC(Nc2ncc(C(F)(F)F)c(-c3c[nH]c4nc(C#N)ccc34)n2)CN1 (stereo not drawn) [Compound 62, 3-(2-((3,3-dimethyl-1,4-oxazepan-6-yl)amino)-5-(trifluoromethyl)pyrimidin-4-yl)-1H-pyrrolo[2,3-b]pyridine-6-carbonitrile]	> 50 µM	0.2 to 5 µM	5 to 50 µM	> 50 µM	0.02 to 0.2 µM	–	–	0.2 to 5 µM
N#Cc1ccc2c(-c3nc(N[C@H]4CC[C@H](N)C4)ncc3C(F)(F)F)c[nH]c2n1 [Compound 65, 3-(2-(((1S,3S)-3-aminocyclopentyl)amino)-5-(trifluoromethyl)pyrimidin-4-yl)-1H-pyrrolo[2,3-b]pyridine-6-carbonitrile]	5 to 50 µM	0.02 to 0.2 µM	5 to 50 µM	5 to 50 µM	< 0.02 µM	–	–	0.02 to 0.2 µM

Second part, led by results:

IC50 (CDK2/cyclinE1 complex)	IC50 (ovarian cancer A2780; Homo sapiens, A2780, 72 h)	IC50 [1]	IC50 (CDK9/cyclinT1 complex)	IC50 [3]	IC50 (ovarian cancer A2780)	Structure (SMILES)	IC50 [2]	IC50 ([2]; Homo sapiens, HCC70, 72 h)
5 to 50 µM	0.02 to 0.2 µM	> 50 µM	> 50 µM	< 0.02 µM	–	CP(C)(=O)c1cccc2c(-c3nc(NCC(O)C(F)(F)F)ncc3C(F)(F)F)c[nH]c12 (single isomer, unassigned) [Compound 146]	0.02 to 0.2 µM	–
0.2 to 5 µM	0.02 to 0.2 µM	0.2 to 5 µM	0.2 to 5 µM	< 0.02 µM	–	Cc1noc(C)c1-c1ccc2c(-c3nc(NC4CCC5(CCNC5)C4)ncc3C(F)(F)F)c[nH]c2n1 (stereo not drawn) [Compound 35, N-(4-(6-(3,5-dimethylisoxazol-4-yl)-1H-pyrrolo[2,3-b]pyridin-3-yl)-5-(trifluoromethyl)pyrimidin-2-yl)-2-azaspiro[4.4]non-7-amine]	–	0.02 to 0.2 µM
5 to 50 µM	0.2 to 5 µM	5 to 50 µM	5 to 50 µM	0.02 to 0.2 µM	–	FC(F)(F)c1cnc(NC2CCC23CCNC3)nc1-c1c[nH]c2nc(N3CCOCC3)ccc12 (stereo not drawn) [Compound 37, N-(4-(6-morpholinyl-1H-pyrrolo[2,3-b]pyridin-3-yl)-5-(trifluoromethyl)pyrimidin-2-yl)-6-azaspiro[3.4]octan-1-amine]	–	0.2 to 5 µM
5 to 50 µM	0.02 to 0.2 µM	5 to 50 µM	5 to 50 µM	< 0.02 µM	–	FC(F)(F)c1cnc(NC2CCC23CNC3)nc1-c1c[nH]c2nc(N3CCOCC3)ccc12 (stereo not drawn) [Compound 39, N-(4-(6-morpholinyl-1H-pyrrolo[2,3-b]pyridin-3-yl)-5-(trifluoromethyl)pyrimidin-2-yl)-2-azaspiro[3.3]heptan-5-amine]	–	0.02 to 0.2 µM
5 to 50 µM	0.02 to 0.2 µM	5 to 50 µM	5 to 50 µM	0.02 to 0.2 µM	–	FC(F)(F)c1cnc(NC2CCC3(CCNC3)C2)nc1-c1c[nH]c2nc(N3CCOCC3)ccc12 (stereo not drawn) [Compound 40, N-(4-(6-morpholinyl-1H-pyrrolo[2,3-b]pyridin-3-yl)-5-(trifluoromethyl)pyrimidin-2-yl)-2-azaspiro[4.4]non-7-amine]	–	0.2 to 5 µM
5 to 50 µM	0.02 to 0.2 µM	5 to 50 µM	5 to 50 µM	0.02 to 0.2 µM	–	FC(F)(F)c1cnc(NC2CCCC3(CCNCC3)C2)nc1-c1c[nH]c2nc(N3CCOCC3)ccc12 (stereo not drawn) [Compound 41, N-(4-(6-morpholinyl-1H-pyrrolo[2,3-b]pyridin-3-yl)-5-(trifluoromethyl)pyrimidin-2-yl)-3-azaspiro[5.5]undecan-8-amine]	–	0.2 to 5 µM
5 to 50 µM	0.2 to 5 µM	5 to 50 µM	5 to 50 µM	0.2 to 5 µM	–	FC(F)(F)c1cnc(NC2C3CNCC32)nc1-c1c[nH]c2nc(N3CCOCC3)ccc12 (stereo not drawn) [Compound 46, N-(4-(6-morpholinyl-1H-pyrrolo[2,3-b]pyridin-3-yl)-5-(trifluoromethyl)pyrimidin-2-yl)-3-azabicyclo[3.1.0]n-hexan-6-amine]	–	0.2 to 5 µM
